In patent EP2742942A1, “Niacinamide for inducing generation of antimicrobial peptides” (Unilever N.V., priority 2012, dated 2014):

How the values were obtained:
[1] = test system: psoriasin gene expression; experiment: Psoriasin gene expression in primary keratinocytes, quantitative real-time PCR; format: cell-based, human
Method: (§1) Human primary keratinocytes prepared from neonatal foreskin were obtained from (Lonza India) and cultured in serum-free keratinocyte growth medium with defined growth supplements (Invitrogen). Keratinocytes were cultured in 12 and 24 well tissue culture plates (BD Falcon) and treated cells at a confluence of 60-70%. Keratinocytes stimulation was performed in KGM with growth supplement and all experiment was done between passages 3 to 5.
(§2) NHEKs were cultured in 12-well plates (BD, Falcon) at 6 × 10^4 cells per well. After 24h of incubation, 50% media was replaced with fresh media. On day 3, cells were treated with different concentrations of Niacinamide with fresh media for 16-18 hours. Cells were harvested in RLT buffer (Qiagen) and samples were stored at -70°C till used for RNA isolation.
(§3) Total RNA was isolated using RNeasy Mini kit from Qiagen, according to the manufacturer's instructions. […]
(§4) Real time PCR was carried out using SYBR green method as per the manufacturer's (Bio-Rad, USA) instructions using thermal controlled Chromo4 machine (Bio-Rad, USA). 5µl of 1:10 diluted sample of cDNA and 1.5pmole of specific primers were used in each reaction by using a standardized PCR program (i.e. 94°C for 5 minutes followed by 50 cycles of "94°C for 15 seconds, 60°C for 30sec, 72°C for 30 seconds) and results were analysed by using 2^-ΔΔCT method. […]

LL-37 gene expression = LL-37 gene expression in primary keratinocytes, quantitative real-time PCR; format: cell-based; conditions: Homo sapiens, Keratinocyte, 18 hours, Niacinamide 1.22 mg/ml, control = 1.0, read-out: Fold change (LL-37 gene expression)
Method: as §1, §2, §3, §4

E. coli 10536 = experiment: In vivo forearm study with lotion, residual E. coli by cup scrub method; conditions: lotion with 3% niacinamide, forearm of human volunteers, twice a day
Method: To confirm the findings from the in vitro experiments, the effect of Niacinamide on healthy human volunteers was tested in vivo. The volunteers were asked to apply a lotion with and without niacinamide (3%) on their forearm twice a day. After 7 days of application, the spots were extracted in PBS and ELISA was performed for detection of Psoriasin and LL-37 AMPs.
Glycerol stock of E. coli (10536) was inoculated in 30 ml TSB medium and culture was incubated overnight at 37°C in shaker incubator. Overnight culture was sub cultured on TSA slants and incubated overnight at 37°C then the slants were stored at 4°C (once in 15 days, slants were prepared freshly).
E. coli culture from slant was sub cultured on TSA plate and incubated overnight at 37°C. Overnight grown plate culture of E. coli was suspended in 6 to 7 ml of Sodium phosphate buffer (10mM). Density of culture was adjusted to 1 OD620 using spectrophotometer and used for clinical studies.
This technique is included in the ASTM method, E2752 - 10 (Standard guide for evaluation of residual effectiveness of antibacterial). The cup and rod were made up of Teflon and the area of the cup is 2.84 cm^2. The cup was used to hold the buffer on skin and rod was used for scrubbing, for better recovery of skin AMP and/or residual bacteria from skin. The duration of scrubbing was 1 min. […]

Psoriasin (S100A7) = experiment: Psoriasin ELISA of keratinocyte culture supernatant; format: cell-based, human; conditions: detected by ELISA, keratinocytes
Method: as §1
Primary keratinocytes were seeded in 12-well plates (BD falcon). At 60 to 70% confluency, cells were treated with different concentration of Niacinamide for 72h. After 72 hours of incubation cell culture supernatant was stored at -70°C until used for ELISA. All ELISA reagents and samples were brought to room temperature prior to the assay. Cell culture supernatant samples were centrifuged at 5000 rpm for 10 minutes before use. 100 ↘l of undiluted sample of cell culture supernatant was used for checking the psoriasin level by using ELISA kit from CircuLex. The clinical samples were diluted in to 1:25 in dilution buffer and used 100↘l from diluted samples for checking psoriasin level by ELISA. In case of LL-37, 100 ↘l of undiluted samples from in vitro as well as clinical samples were used for checking LL-37 level by ELISA (Hycult Biotech).

E. coli = experiment: Human volunteer study with Vaseline healthy white cream, E. coli count on forearm; format: in vivo; conditions: two times per day for 1 day, control 4.3
Method: An experiment using the following protocol was conducted: • 1. Volunteers were given Lux™ soap for use and asked not to use any other soap or moisturizers on their forearm for 7 days before the start of the study. • 2. Volunteer were be asked to apply Vaseline™ healthy white base cream and Vaseline™ healthy white formulated with Niacinamide (1%, 2% and 3%) at various spots on the forearm. • 3. Volunteers were asked to repeat […] for two times per day for 1 day, morning after bath and night just before sleep. The volunteers were asked not to wash the forearms after application of formulations at night. • 4. On day 2, the forearms were washed by the investigator with a non-antibacterial soap bar and asked the volunteers to wait for 6 hours under controlled conditions (24 ±2°C and 45%±5% RH) • 5. After 6 hours of waiting, ∼10^6 E. coli were applied on the forearm to each spot separately. The contact time of E. coli on skin was 15 minutes. • 6. After 15 minutes, the sample was extracted from the forearm using the cup-rod method. • 7. E. coli was counted using standard microbiological method.

S100-A9 = experiment: AMP secretion by primary keratinocytes, mass spectrometry of secretome (PSM); format: cell-based; conditions: Niacinamide 1mg/ml, 72 hours; control sample 2
Method: (§5) The following procedure was used to determine the AMPs induced as a consequence of niacinamide on keratinocte cells. • 1. Primary keratinocytes were seeded in 12 well plates with 1 ml of KGM complete media. (Seeded 60,000 cells/well at Passage-4). • 2. Plates were incubated in the CO2 incubator for 48 hours. • 3. After 48 hours of incubation, cells were treated with and without Niacinamide 1mg/ml concentration in duplicate wells (fresh media was used for treatment). • 4. After 72 hours of incubation, cell culture supernatant was transferred in to 1.5 ml eppendorf tubes respectively. • 5. Samples were then passed through 20 kDa cutoff filters to remove high molecular weight proteins. • 6. Eluted samples, containing <20kDa proteins were transferred to 15ml sterile centrifuge tubes. • 7. Then, chilled acetone (HPLC grade) was added to the eluted samples (1 ml of sample:4ml of acetone) • 8. Tubes were transferred to -20°C for 24 hours to precipitate the proteins. • 9. After 24 hours, tubes were centrifuged at 14000g for 40 minutes at 4°C. • 10. The supernatant was discarded and the protein pellet was analysed using mass spectrometry for proteins.
(§6) The increased level of secretion of AMPs is measured by a PSM value (a peptide spectrum match scoring function) which is a relative measure of abundance of the peptide in the secretome. Table - 5

Lipocalin-1 = experiment: as above; format: cell-based; conditions: Niacinamide 1mg/ml, 72 hours; control sample 0
Method: as §5, §6

Lipocalin -2 = experiment: as above; format: cell-based; conditions: Niacinamide 1mg/ml, 72 hours; control sample 1
Method: as §5, §6

S-100-A8 = experiment: as above; format: cell-based; conditions: Niacinamide 1mg/ml, 72 hours; control sample 1
Method: as §5, §6

Elafin = experiment: as above; format: cell-based; conditions: Niacinamide 1mg/ml, 72 hours; control sample 1
Method: as §5, §6

Lactoferrin = experiment: as above; format: cell-based; conditions: Niacinamide 1mg/ml, 72 hours; control sample 1
Method: as §5, §6

Lysozyme C = experiment: as above; format: cell-based; conditions: Niacinamide 1mg/ml, 72 hours; control sample 2
Method: as §5, §6

S-100-A11 = experiment: as above; format: cell-based; conditions: Niacinamide 1mg/ml, 72 hours; control sample 2
Method: as §5, §6

With `NC(=O)c1cccnc1` [Niacinamide] the “induction of psoriasin gene expression (in words)” value ([1]; 1.22 mg/ml) was “unable to induce psoriasin gene expression”, the fold induction at 1220 µg/mL ([1]; Homo sapiens, Keratinocyte, primary keratinocytes, 18 hours, Niacinamide 1.22 mg/ml, control = 1.0, read-out: Fold change (psoriasin gene expression)) was 1.1 and the fold induction at 1220 µg/mL (LL-37 gene expression) was 2.4. For the same compound, the “Residual log of E.Coli measured after one day of applying a composition” value (E. coli 10536; n= 28, basal 4.21, lotion without niacinamide 3.44) was 2.31, the “Residual log of E.Coli measured after 7 days of applying a composition” value (E. coli 10536; n= 34, basal 4.41, lotion without niacinamide 3.56) was 2.39 and the “secretion of psoriasin AMP (in words)” value (Psoriasin (S100A7)) was “able to induce the secretion of psoriasin AMP”. The “Residual log of E. Coli” value (E. coli; 1 % niacinamide in Vaseline healthy white cream) was 3.5, the “Residual log of E. Coli” value (E. coli; 2% niacinamide in Vaseline healthy white cream) was 3.0 and the “Residual log of E. Coli” value (E. coli; 3% niacinamide in Vaseline healthy white cream) was 2.7. The “PSM value with niacinamide treatment, S100-A9” value (S100-A9) was 4, the “PSM value with niacinamide treatment, Lipocalin-1” value (Lipocalin-1) was 2 and the “PSM value with niacinamide treatment, Lipocalin -2” value (Lipocalin -2) was 4. For the same compound, the “PSM value with niacinamide treatment, S-100-A8” value (S-100-A8) was 3, the “PSM value with niacinamide treatment, Elafin” value (Elafin) was 3 and the “PSM value with niacinamide treatment, Lactoferrin” value (Lactoferrin) was 7. The “PSM value with niacinamide treatment, Lysozyme C” value (Lysozyme C) was 4 and the “PSM value with niacinamide treatment, S-100-A11” value (S-100-A11) was 5.
